Data published in patent US12263144B2, “Methods of treating IgA nephropathy with thiol-containing molecules” (Accubit LLC—Biotechnology, priority 2020, dated 2025).

System: natural IgA1 assembly (two heavy chains and two light chains connected via disulfide bonds)
Assay: Ex vivo study: integrity of natural IgA assembly under thiol/reducing agents
Type: biochemical
Method: The overall complex size of IgA aggregates was determined either by size-exclusion chromatography (SEC: Superdex 200 Increase 10/300 by GL Cytiva), or by SDS-PAGE. For evaluating the involvement of intermolecular disulfide connectivity in IgA complexes, IgA samples were treated with either reducing agents, such as DTT, TCEP or reduced glutathione (Sigma), or interventional drugs, such as cysteamine (Sigma), WR-1065 (Sigma) and N-Acetyl-L-cysteine (VWR Chemicals) in phosphate-buffered saline (PBS) pH7.4. Before running on SEC, samples were treated with the drugs at indicated concentrations at 37° C. for one hour.
Proteins in sample buffer (Bio-Rad Laboratories, Hercules, CA, USA) with or without TCEP (for reducing or nonreducing condition, respectively) were resolved by 4-12% SDS-PAGE (Bio-Rad Laboratories). IgA bands were subsequently visualized either by staining with GelCode Blue (Thermo Fisher Scientific), or by Western blotting on PVDF membrane. For Western blotting, 5% non-fat milk was used in blocking for one hour at room temperature. The membrane was then incubated with mouse anti-Histag antibody (Thermo Scientific), or HRP-conjugated goat anti-rat IgA α-chain antibody (Cat. ab97185, Abcam, UK), or goat anti-human IgA HRP antibody (Cat: 2050-05, SouthernBiotech) for detecting rat or human IgA (Fc), respectively. The membrane was developed using the Clarity™ ECL substrate (Bio-Rad Laboratories, CA, USA).

With NCCS [cysteamine] the “disruption of natural IgA assembly / normal pairing of IgA heavy chains” value was “did not cause unwanted disruption of natural IgA1 assembly”.
